# Results as given in ChEMBL document CHEMBL6078713, “Synthesis and mechanistic studies of 4-aminoquinoline-Isatin molecular hybrids and Schiff's bases as promising antimicrobial agents” (Eur J Med Chem, 2025).
# Calls of active or inactive are those of the source. The rule behind the calls is not given here.
# Test system: Staphylococcus aureus
# Assay: Bacteriostatic activity against Staphylococcus aureus MTCC 902 assessed as reduction in bacterial growth at 0.5 to 2 times MIC measured upto 24 hrs by absorbance based assay
# Type: functional, organism-based
smiles,measurement,value
O=[N+]([O-])c1ccccc1/C=N/CCNc1ccnc2cc(Cl)ccc12,Activity,Active
